In ChEMBL document CHEMBL4402585 (J Med Chem, 2020):

Legend:
[1] = target: T1, Bromodomain-containing protein 4 (Homo sapiens, UniProt O60885); test: Inhibition of BRD4 in human MV4-11 cells assessed as up regulation of p21 expression measured after 6 to 24 hrs by Western blot analysis; type: cell-based
[2] = Half life in mouse at 3 mg/kg, iv by LC-MS/MS analysis; type: ADME, organism-based; conditions: in vivo
[3] = Clearance in mouse at 3 mg/kg, iv by LC-MS/MS analysis; type: ADME, organism-based; conditions: in vivo
[4] = Half life in mouse liver microsomes at 0.1 uM preincubated for 10 mins followed by NADPH addition and measured up to 60 mins by LC-MS/MS analysis; type: ADME, Microsome
[5] = Volume of distribution at steady state in Sprague-Dawley rat at 1 mg/kg, iv by LC-MS/MS analysis; type: ADME, organism-based; conditions: in vivo, read-out: Vdss
[6] = Clearance in human liver microsomes at 0.1 uM preincubated for 10 mins followed by NADPH addition and measured up to 60 mins by LC-MS/MS analysis; type: ADME, Microsome; conditions: 1 h
MM1.S = test: Antiproliferative activity against human MM1S cells assessed as reduction in cell viability measured after 72 hrs by Celltitre-glo luminescence assay; type: functional, cell-based
[7] = target: T1, Bromodomain-containing protein 4; test: Inhibition of BRD4 in human MV4-11 cells assessed as reduction in c-Myc expression measured after 6 to 24 hrs by Western blot analysis; type: cell-based
[8] = target: Histone acetyltransferase p300 (Homo sapiens, UniProt Q09472); test: Inhibition of MSGRGK(Ac)-GGK(Ac)GLGK(Ac)GGAKRHR-biotin binding to EP300 (1040 to 1160 residues) (unknown origin) expressed in Escherichia coli BL21 (DE3) by Alphascreen assay
Histone acetyltransferase p300, sequence (Q09472 whole entry, the tested form may be a part): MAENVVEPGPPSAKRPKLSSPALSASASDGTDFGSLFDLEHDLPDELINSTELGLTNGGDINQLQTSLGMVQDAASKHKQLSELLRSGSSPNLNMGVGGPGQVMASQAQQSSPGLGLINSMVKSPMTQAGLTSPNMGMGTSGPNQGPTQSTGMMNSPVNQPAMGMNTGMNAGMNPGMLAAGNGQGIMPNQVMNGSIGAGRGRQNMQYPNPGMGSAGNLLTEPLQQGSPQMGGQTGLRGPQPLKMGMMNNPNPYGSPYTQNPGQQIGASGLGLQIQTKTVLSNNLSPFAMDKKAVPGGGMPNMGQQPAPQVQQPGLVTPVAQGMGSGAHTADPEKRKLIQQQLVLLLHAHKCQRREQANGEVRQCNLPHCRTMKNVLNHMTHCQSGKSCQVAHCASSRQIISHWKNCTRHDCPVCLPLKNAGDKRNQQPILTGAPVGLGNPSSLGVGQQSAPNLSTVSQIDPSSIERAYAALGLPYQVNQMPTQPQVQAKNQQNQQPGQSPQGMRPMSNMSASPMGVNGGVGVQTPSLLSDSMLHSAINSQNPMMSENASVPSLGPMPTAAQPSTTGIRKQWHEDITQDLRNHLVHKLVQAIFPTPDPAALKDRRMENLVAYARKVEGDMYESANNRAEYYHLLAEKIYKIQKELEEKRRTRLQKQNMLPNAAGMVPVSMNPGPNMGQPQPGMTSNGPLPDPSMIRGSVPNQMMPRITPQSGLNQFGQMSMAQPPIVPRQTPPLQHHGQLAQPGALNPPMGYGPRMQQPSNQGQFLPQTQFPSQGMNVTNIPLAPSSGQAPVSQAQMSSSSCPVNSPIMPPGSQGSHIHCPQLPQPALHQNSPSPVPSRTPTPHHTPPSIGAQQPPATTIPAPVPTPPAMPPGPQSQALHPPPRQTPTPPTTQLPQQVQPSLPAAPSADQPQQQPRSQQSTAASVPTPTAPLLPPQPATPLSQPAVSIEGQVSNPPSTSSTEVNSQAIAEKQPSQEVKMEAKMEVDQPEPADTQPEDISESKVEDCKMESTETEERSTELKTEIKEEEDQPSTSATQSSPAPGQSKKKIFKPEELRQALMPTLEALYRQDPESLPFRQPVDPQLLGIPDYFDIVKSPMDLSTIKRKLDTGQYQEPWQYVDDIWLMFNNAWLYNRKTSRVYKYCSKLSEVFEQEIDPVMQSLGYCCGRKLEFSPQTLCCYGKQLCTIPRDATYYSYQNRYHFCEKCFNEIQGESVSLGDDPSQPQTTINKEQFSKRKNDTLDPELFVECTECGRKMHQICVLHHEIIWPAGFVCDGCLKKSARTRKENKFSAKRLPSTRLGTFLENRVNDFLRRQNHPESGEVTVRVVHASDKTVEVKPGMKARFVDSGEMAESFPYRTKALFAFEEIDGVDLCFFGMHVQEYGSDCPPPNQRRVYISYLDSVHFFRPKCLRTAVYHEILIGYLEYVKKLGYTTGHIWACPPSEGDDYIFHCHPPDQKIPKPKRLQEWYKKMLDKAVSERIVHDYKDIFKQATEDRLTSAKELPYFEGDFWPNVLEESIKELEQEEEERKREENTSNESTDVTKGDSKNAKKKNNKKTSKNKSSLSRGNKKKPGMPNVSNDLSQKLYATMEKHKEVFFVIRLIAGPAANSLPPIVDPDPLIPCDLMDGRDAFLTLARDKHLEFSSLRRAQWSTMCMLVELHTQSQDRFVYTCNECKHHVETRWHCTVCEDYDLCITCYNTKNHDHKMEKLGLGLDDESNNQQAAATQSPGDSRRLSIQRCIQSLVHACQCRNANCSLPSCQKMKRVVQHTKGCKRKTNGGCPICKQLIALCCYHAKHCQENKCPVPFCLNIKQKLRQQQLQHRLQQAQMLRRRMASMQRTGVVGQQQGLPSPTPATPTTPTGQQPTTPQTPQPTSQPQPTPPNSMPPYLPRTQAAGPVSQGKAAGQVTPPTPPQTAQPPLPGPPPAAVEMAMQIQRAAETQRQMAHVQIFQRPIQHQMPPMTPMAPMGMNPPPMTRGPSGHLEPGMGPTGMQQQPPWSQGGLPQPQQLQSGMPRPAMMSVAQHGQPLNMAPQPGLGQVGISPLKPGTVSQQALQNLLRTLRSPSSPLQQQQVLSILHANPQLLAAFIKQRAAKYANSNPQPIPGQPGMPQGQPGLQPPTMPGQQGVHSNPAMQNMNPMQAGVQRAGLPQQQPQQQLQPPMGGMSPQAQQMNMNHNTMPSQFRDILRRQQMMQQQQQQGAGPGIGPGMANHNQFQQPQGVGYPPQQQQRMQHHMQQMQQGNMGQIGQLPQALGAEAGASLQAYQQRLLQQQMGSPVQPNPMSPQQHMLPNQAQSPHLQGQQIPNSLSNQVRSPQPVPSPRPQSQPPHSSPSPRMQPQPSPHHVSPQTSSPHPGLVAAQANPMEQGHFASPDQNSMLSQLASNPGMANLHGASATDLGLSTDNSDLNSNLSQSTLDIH

[9] = AUC (0 to t) in mouse at 3 mg/kg, iv by LC-MS/MS analysis; type: ADME, organism-based; conditions: in vivo
MV4-11 = test: Antiproliferative activity against human MV4-11 cells assessed as reduction in cell viability measured after 72 hrs by Celltitre-glo luminescence assay; type: functional, cell-based; conditions: MV4-11, 72 h
[10] = target: Bromodomain-containing protein 3 (Homo sapiens, UniProt Q15059); test: Binding affinity to human partial length BRD3 BD2 (G306 to P416 residues) expressed in bacterial expression system by bromoscan assay
Bromodomain-containing protein 3, sequence (Q15059 whole entry, the tested form may be a part): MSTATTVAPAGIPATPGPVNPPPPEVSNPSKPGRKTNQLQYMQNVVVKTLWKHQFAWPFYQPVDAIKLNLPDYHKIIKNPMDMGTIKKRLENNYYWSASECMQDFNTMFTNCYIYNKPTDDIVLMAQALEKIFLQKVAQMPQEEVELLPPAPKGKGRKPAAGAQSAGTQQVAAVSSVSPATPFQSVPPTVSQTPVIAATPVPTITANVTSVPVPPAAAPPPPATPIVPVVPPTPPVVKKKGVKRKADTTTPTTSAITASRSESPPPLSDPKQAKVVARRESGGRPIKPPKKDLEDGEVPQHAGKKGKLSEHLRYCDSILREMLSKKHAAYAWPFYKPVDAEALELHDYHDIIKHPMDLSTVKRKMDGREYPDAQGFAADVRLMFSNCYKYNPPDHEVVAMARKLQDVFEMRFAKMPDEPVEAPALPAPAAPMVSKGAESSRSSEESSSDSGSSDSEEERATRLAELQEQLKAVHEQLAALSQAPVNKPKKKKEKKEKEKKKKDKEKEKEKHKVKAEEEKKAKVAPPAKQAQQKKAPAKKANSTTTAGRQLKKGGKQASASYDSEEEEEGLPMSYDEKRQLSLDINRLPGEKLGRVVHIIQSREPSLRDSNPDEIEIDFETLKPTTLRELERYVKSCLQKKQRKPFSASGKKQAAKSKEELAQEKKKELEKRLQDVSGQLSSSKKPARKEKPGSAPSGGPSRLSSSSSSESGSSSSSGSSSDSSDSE

[11] = Clearance in mouse liver microsomes at 0.1 uM preincubated for 10 mins followed by NADPH addition and measured up to 60 mins by LC-MS/MS analysis; type: ADME, Microsome; conditions: 1 h
[12] = Toxicity in human MV4-11 cells xenografted mouse assessed as change in body weight at 6.25 to 12.5 mg/kg, po administered for 28 days and measured every 2 to 3 days during compound dosing; type: organism-based; conditions: in vivo
[13] = Half life in mouse at 3 mg/kg, po by LC-MS/MS analysis; type: ADME, organism-based; conditions: in vivo
[14] = Half life in human liver microsomes at 0.1 uM preincubated for 10 mins followed by NADPH addition and measured up to 60 mins by LC-MS/MS analysis; type: ADME, Microsome

## CCS(=O)(=O)Cc1cnc(Oc2ccc(F)cc2F)c(-c2cc(C)c3c(=O)[nH]ccn23)c1
[1]
  inhibition: Dose-dependent effect
[2]
  half-life: 0.9 h
[3]
  clearance: 15.3 mL/min/kg
[4]
  half-life at 0.1 µM: 1.38 h
[5]
  Vd: 1.46 L/kg
[6]
  Microsomal intrinsic clearance: 12.2 mL/min/g
MM1.S
  IC50: 15.9 nM
[7]
  inhibition: Dose-dependent effect
[8]
  IC50: 3860 nM
[9]
  AUC(0-t): 3270 ng·h/mL
MV4-11
  IC50: 2.4 nM
[10]
  Kd: 1 nM
[11]
  Microsomal intrinsic clearance: 25.4 mL/min/g
[12]
  Activity: Non-Toxic
[13]
  half-life: 1.3 h
[14]
  half-life at 0.1 µM: 2.87 h
